Data as given in patent US9156811B2 (priority 2008, dated 2015).
pIC50: −log10 of the molar value. Read-outs that look alike come from different tables or passages of the source.

Experiments:
[1] = test system: Trypanosome (T. brucei brucei); assay: In-vitro antitrypanosomal efficacy assay (cell growth, resazurin); format: cell-based; settings: T. brucei cell growth
Experimental: To column 12, 200 μl media was added to provide a no cells control. Plates were then incubated at 37° C. in an atmosphere of 5% CO2 for 69 hours, before the addition of 20 μl of 500 μM rezasurin solution, and a further incubation period of 4 hours. […] Concentration effect curves were fitted using non-linear regression using XLFit 4.2 and EC50 values determined.

HT29 = assay: In-vitro antiproliferative assay, HT29; format: cell-based, human; settings: Homo sapiens, HT-29, 72 h
HCT116 = assay: In-vitro antiproliferative assay, HCT116; format: cell-based, human; settings: Homo sapiens, HCT-116, 72 h, read-out: IC50 HCT116
NCI-H1299 = assay: In-vitro antiproliferative assay, NCI-H1299; format: cell-based; settings: Homo sapiens, NCI-H1299, 72 h, read-out: IC50 NCI-H1299
MDA-MB-231 = assay: In-vitro antiproliferative assay, MDA-MB-231; format: cell-based, human; settings: Homo sapiens, MDA-MB-231, 72 h, read-out: IC50 MDA-MB-231
OE19 = assay: In-vitro antiproliferative assay, OE19; format: cell-based; settings: Homo sapiens, OE19, 72 h, read-out: IC50 OE19
OE21 = assay: In-vitro antiproliferative assay, OE21; format: cell-based; settings: Homo sapiens, OE21, 72 h, read-out: IC50 OE21
C6 = assay: In-vitro antiproliferative assay, C6; settings: C6, 72 h, read-out: IC50 C6
H460 = assay: In-vitro antiproliferative assay, H460; settings: Homo sapiens, NCI-H460, 72 h, read-out: IC50 H460
MRC5 = assay: In-vitro antiproliferative assay, MRC5; settings: Homo sapiens, MRC5, 72 h, read-out: IC50 MRC5
A549 = assay: In-vitro antiproliferative assay, A549; settings: Homo sapiens, A549, 72 h, read-out: IC50 A549
SkBr3 = assay: In-vitro antiproliferative assay, SkBr3; settings: Homo sapiens, SK-BR-3, 72 h, read-out: IC50 SkBr3
RT112 = assay: In-vitro antiproliferative assay, RT112; settings: Homo sapiens, RT-112, 72 h, read-out: IC50 RT112
HT1080 = assay: In-vitro antiproliferative assay, HT1080; settings: Homo sapiens, HT-1080, 72 h, read-out: IC50 HT1080

## Cc1nn(C)c(C)c1N[S+](=O)([O-])c1c(Cl)cc(-c2ccnc(N3CCNCC3)c2)cc1Cl [DDD85646, 2,6-Dichloro-4-(2-piperazin-1-yl-pyridin-4-yl)-N-(1,3,5-trimethyl-1H-pyrazol-4-yl)-benzenesulfonamide]
[1]
  ED50 (μM) T. brucei: 0.001 µM
HT29; read-out: IC50 HT29
  pIC50: 6.95
HT29; read-out: IC50 HT-29
  pIC50: 6.95
HCT116
  pIC50: 6.63
NCI-H1299
  pIC50: 6.24
MDA-MB-231
  pIC50: 6.64
OE19
  pIC50: 6.18
OE21
  pIC50: 6.54
C6
  pIC50: 5.94
H460
  pIC50: 5.88
MRC5
  pIC50: 6.91
A549
  pIC50: 6.80
SkBr3
  pIC50: 6.97
RT112
  pIC50: 6.48
HT1080
  pIC50: 7.22
